Starred links: 1 amine or outer side, 2 acyl side, 3 side chain; linkers in the order of their positions; H or OH if unused. Positions of bridges follow the written chain, without caps; N, C: chain ends. Non-standard residues stand in square brackets, D forms with d. Residues, ends and D or L forms follow the SMILES beside them. *: point of attachment. Orn(4R-OH,5R-OH) = O=C([C@H](C[C@@H](O)[C@@H](O)N[*:3])N[*:1])[*:2]; hTyr(3S-OH,4S-OH) = N[C@H](C(=O)O)[C@H](O)[C@@H](O)c1ccc(O)cc1; Pro(3S-OH,4S-Me) = C[C@H]1CN[C@H](C(=O)O)[C@H]1O; Benzoyl(4-octyloxy) = CCCCCCCCOc1ccc(C(=O)*)cc1; Hyp = O=C(O)[C@@H]1C[C@@H](O)CN1

What all share (assay): Antifungal susceptibility testing, pH 7.0/35° C., 1x10^3 cells/mL
One experiment concerns C.albicans, B311. In kind it is cell-based. The conditions noted are these: Candida albicans, B311; pH 7.0/35° C./1x10^3 cells/mL, 48 hrs; read-out: EC50 - 48 HRS C.albicans. As to the method:
(§1) 2) Assay at pH 7.0/35° C. Incubation/(Candida Strains Only).
(§2) Based on several papers published during 1990-1993 regarding the standardization of testing procedures at multiple research centers, and the finding that, inoculum size, pH of media, and the temperature of incubation drastically affect the antifungal activity of several compounds, particularly in the Azole class of antifungals, an additional assay was configured at pH 7.0 for Candida albicans. [M. A. Pfaller et al, Antimicrobial Agents and Chemotherapy, 34, 1648-1654 (1990); F. C. Odds et al, Antimicrobial Agents and Chemotherapy, 36, 1727-1737 (1992); R. A. Cook et al, Antimicrobial Agents and Chemotherapy, 34, 1542-1545 (1990)]
(§3) The assay format is identical to the first one with the following modifications: C.albicans cells are diluted to 1×10^3 cells/ml into 2× buffered YNB (YNB buffered with 1.65 mM MOPS, pH 7.0, with the addition of 2% Dextrose and 0.08% casamino acids mixture, bio 101. inc,cat #10420-100). Incubation is carried out at 35° C. instead of 30° C., and cell growth is monitored at 590 nm at 24 and 48 hrs as described. All other aspects of the assay are identical. This assay was validated with amphotericin B, fluconazole, cilofungin (Ly-121019), Nikkomycin and terbinafine using the following Candida strains- (C.albicans, B311, C.parasilosis, C.tropicalis, C.lusitaniae, C.glabrata, and C. albicans 516)-Table II. All strains were from Dr. Kobayashi, Washington university.

Another experiment deals with C.glabrata. In kind it is cell-based. To be noted: Nakaseomyces glabratus; pH 7.0/35° C./1x10^3 cells/mL, 48 hrs; read-out: EC50 - 48 HRS C.glab. As to the method:
as §1, §2, §3

The next experiment has as its system C.lusitaniae. It is filed as cell-based. The conditions noted are these: Clavispora lusitaniae; pH 7.0/35° C./1x10^3 cells/mL, 48 hrs; read-out: EC50 - 48 HRS C.lusi. The method, then: as §1, §2, §3
Another experiment relates to C.parasilosis. It is filed as cell-based. To be noted: pH 7.0/35° C./1x10^3 cells/mL, 48 hrs; read-out: EC50 - 48 HRS C.para. The method, then:
as §1, §2, §3

The test system of a further experiment is C.tropicalis. It is filed as cell-based. To be noted: Candida tropicalis; pH 7.0/35° C./1x10^3 cells/mL, 48 hrs; read-out: EC50 - 48 HRS C.trop. The method, then:
as §1, §2, §3

Another experiment deals with C. albicans 516. It is filed as cell-based, Candida albicans. To be noted: Candida albicans, 516; pH 7.0/35° C./1x10^3 cells/mL, 48 hrs; read-out: EC50 - 48 HRS C.albicans (516). As to the method:
as §1, §2, §3

As a reminder, the EC50 is the concentration at which the effect is half-maximal. Take `C[C@@H]1[C@H](O)[C@@H](C)/C=C/C=C/C=C/C=C/C=C/C=C/C=C/[C@H](O[C@@H]2O[C@H](C)[C@@H](O)[C@H](N)[C@@H]2O)C[C@@H]2O[C@](O)(C[C@@H](O)C[C@@H](O)[C@H](O)CC[C@@H](O)C[C@@H](O)CC(=O)O[C@H]1C)C[C@H](O)[C@H]2C(=O)O` [Amphotericin, amphotericin B]: the EC50 in the experiment on C.albicans, B311 was found to be 0.11 µg/mL; with C.glabrata it was 0.47 µg/mL; in the experiment on C.lusitaniae, 0.42 µg/mL; in the experiment on C.parasilosis it was 0.31 µg/mL; in the experiment on C.tropicalis, 0.44 µg/mL; with C. albicans 516, 0.14 µg/mL.

As to `CCCCCCCCOc1ccc(C(=O)N[C@H]2C[C@@H](O)[C@@H](O)NC(=O)[C@@H]3[C@@H](O)[C@@H](C)CN3C(=O)[C@H]([C@@H](C)O)NC(=O)[C@H]([C@H](O)[C@@H](O)c3ccc(O)cc3)NC(=O)[C@@H]3C[C@@H](O)CN3C(=O)[C@H]([C@@H](C)O)NC2=O)cc1` [Ly 12109, cilofungin] ({Benzoyl(4-octyloxy)}-[Orn(4R-OH,5R-OH)]T[Hyp][hTyr(3S-OH,4S-OH)]T[Pro(3S-OH,4S-Me)]; lactam 1-C), the EC50 came to 0.6 µM in the experiment with C.albicans, B311; 6.1 µM in the experiment with C.glabrata; 6.6 µM in the experiment on C.lusitaniae; 32 µM in the experiment with C.parasilosis; 0.6 µM in the experiment with C.tropicalis; 0.6 µM in the experiment with C. albicans 516.

For the compound `OC(Cn1cncn1)(Cn1cncn1)c1ccc(F)cc1F` [Fluconazole, fluconazole], the EC50 with C.albicans, B311 was 0.71 µg/mL; in the experiment with C.glabrata, 26 µg/mL; in the experiment with C.lusitaniae, 0.6 µg/mL; in the experiment on C.parasilosis, 0.91 µg/mL; with C.tropicalis it was 2.6 µg/mL; in the experiment on C. albicans 516 it was 0.65 µg/mL.

Values taken from patent publication US6632921B1, “Seryl-lysyl-based peptide and peptidomimetic inhibitors of N-myristoyl transferase as anti-infective agents” (G. D Searle & Co, priority 1995, dated 2003).
